Measured values: PubChem BioAssay AID330 (DTP/NCI, 2004)
Toxic doses and inconclusive results are not listed. How the source made its calls: active means survival T/C of 150% or more; inactive means T/C below 125% in these data.

Test system: P388 leukemia ip, CD2F1 mice, survival T/C
Assay: NCI In Vivo Anticancer Drug Screen. Data for tumor model P388 Leukemia (intraperitoneal) in CD2F1 (CDF1) mice
Details: endpoint: median survival time, higher = longer survival
Summary of the method: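 Mice carrying the transplanted tumor received test compound or vehicle. Survival was recorded in each group, and the value is the treated-group measurement divided by that of the vehicle-treated control group.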

[1] = dose: 50.0 mg/kg/injection, schedule: Q01DX001 (ip), vehicle: Klucel (hydroxypropylcellulose) (HPC)
[2] = dose: 100.0 mg/kg/injection, schedule: Q01DX001 (ip), vehicle: Klucel (hydroxypropylcellulose) (HPC)
[3] = dose: 50.0 mg/kg/injection, schedule: Q01DX009 (ip), vehicle: saline
[4] = dose: 100.0 mg/kg/injection, schedule: Q01DX009 (ip), vehicle: saline
[5] = dose: 200.0 mg/kg/injection, schedule: Q01DX009 (ip), vehicle: saline
[6] = dose: 200.0 mg/kg/injection, schedule: Q01DX009 (ip), vehicle: saline with Tween-80

Measured: T/C

N#CC(O)Cc1ccccc1 (stereo not drawn)
inactive: dose: 2.5 mg/kg/injection, schedule: Q04DX003 (ip), vehicle: other 110 % of control | dose: 5.0 mg/kg/injection, schedule: Q04DX003 (ip), vehicle: other 105 % of control | dose: 10.0 mg/kg/injection, schedule: Q04DX003 (ip), vehicle: other 105 % of control

COc1ccc2oc(N(C)c3ccccc3)c(C3OC4OC(C)(C)OC4C3OC)c(=O)c2c1 (stereo not drawn)
inactive: dose: 25.0 mg/kg/injection, schedule: Q01DX001 (ip), vehicle: Klucel (hydroxypropylcellulose) (HPC) 97 % of control | [1] 105 % of control | [2] 109 % of control

CS(=O)(=O)OCC(O)C(O)COS(C)(=O)=O (stereo not drawn)
inactive: [1] 106 % of control | [2] 110 % of control | dose: 100.0 mg/kg/injection, schedule: Q01DX001 (ip), vehicle: saline 100 % of control | dose: 100.0 mg/kg/injection, schedule: Q01DX001 (oral), vehicle: saline 100 % of control | dose: 100.0 mg/kg/injection, schedule: Q01DX009 (oral), vehicle: saline 104 % of control | dose: 100.0 mg/kg/injection, schedule: Q03HX008 (ip), vehicle: saline 100 % of control | dose: 100.0 mg/kg/injection, schedule: Q03HX016 (ip), vehicle: saline 100 % of control | dose: 100.0 mg/kg/injection, schedule: Q03HX024 (ip), vehicle: saline 100 % of control | dose: 100.0 mg/kg/injection, schedule: Q04DX003 (ip), vehicle: saline with Tween-80 109 % of control | dose: 100.0 mg/kg/injection, schedule: Q04DX003 (ip), vehicle: saline 104 % of control | dose: 100.0 mg/kg/injection, schedule: Q08DX002 (ip), vehicle: saline 104 % of control | dose: 200.0 mg/kg/injection, schedule: Q01DX001 (ip), vehicle: Klucel (hydroxypropylcellulose) (HPC) 110 % of control | dose: 200.0 mg/kg/injection, schedule: Q01DX001 (ip), vehicle: saline 100 % of control | dose: 200.0 mg/kg/injection, schedule: Q01DX001 (oral), vehicle: saline 100 % of control | dose: 200.0 mg/kg/injection, schedule: Q01DX009 (oral), vehicle: saline 104 % of control | dose: 200.0 mg/kg/injection, schedule: Q03HX008 (ip), vehicle: saline 100 % of control | dose: 200.0 mg/kg/injection, schedule: Q03HX016 (ip), vehicle: saline 100 % of control | dose: 200.0 mg/kg/injection, schedule: Q03HX024 (ip), vehicle: saline 100 % of control | dose: 200.0 mg/kg/injection, schedule: Q04DX003 (ip), vehicle: saline with Tween-80 104 % of control | dose: 200.0 mg/kg/injection, schedule: Q04DX003 (ip), vehicle: saline 100 % of control | dose: 200.0 mg/kg/injection, schedule: Q08DX002 (ip), vehicle: saline 104 % of control | dose: 400.0 mg/kg/injection, schedule: Q01DX001 (ip), vehicle: saline 100 % of control | dose: 400.0 mg/kg/injection, schedule: Q01DX001 (oral), vehicle: saline 109 % of control | dose: 400.0 mg/kg/injection, schedule: Q01DX009 (ip), vehicle: saline 90 % of control | dose: 400.0 mg/kg/injection, schedule: Q01DX009 (oral), vehicle: saline 100 % of control | dose: 400.0 mg/kg/injection, schedule: Q03HX008 (ip), vehicle: saline 109 % of control | dose: 400.0 mg/kg/injection, schedule: Q03HX016 (ip), vehicle: saline 100 % of control | dose: 400.0 mg/kg/injection, schedule: Q03HX024 (ip), vehicle: saline 100 % of control | dose: 400.0 mg/kg/injection, schedule: Q04DX003 (ip), vehicle: saline with Tween-80 118 % of control | dose: 400.0 mg/kg/injection, schedule: Q04DX003 (ip), vehicle: saline 104 % of control | dose: 400.0 mg/kg/injection, schedule: Q08DX002 (ip), vehicle: saline 104 % of control | dose: 800.0 mg/kg/injection, schedule: Q01DX001 (ip), vehicle: saline 109 % of control | dose: 800.0 mg/kg/injection, schedule: Q01DX001 (oral), vehicle: saline 100 % of control | dose: 800.0 mg/kg/injection, schedule: Q01DX009 (oral), vehicle: saline 113 % of control | dose: 800.0 mg/kg/injection, schedule: Q03HX008 (ip), vehicle: saline 109 % of control | dose: 800.0 mg/kg/injection, schedule: Q03HX016 (ip), vehicle: saline 100 % of control | dose: 800.0 mg/kg/injection, schedule: Q03HX024 (ip), vehicle: saline 100 % of control | dose: 800.0 mg/kg/injection, schedule: Q04DX003 (ip), vehicle: saline 114 % of control | dose: 800.0 mg/kg/injection, schedule: Q08DX002 (ip), vehicle: saline 104 % of control

CC(=O)Oc1cc(C)cc2c1[C@@]1(C)CC[C@H]3[C@@H](CC[C@H]4C[C@@H](OC(C)=O)CC[C@@]43C)[C@@H]1C2
inactive: dose: 50.0 mg/kg/injection, schedule: Q01DX005 (ip), vehicle: Klucel (hydroxypropylcellulose) (HPC) 96 % of control | dose: 100.0 mg/kg/injection, schedule: Q01DX005 (ip), vehicle: Klucel (hydroxypropylcellulose) (HPC) 96 % of control | dose: 200.0 mg/kg/injection, schedule: Q01DX005 (ip), vehicle: Klucel (hydroxypropylcellulose) (HPC) 107 % of control

CC(=O)N(O)c1ccc(C(N)=O)cc1
inactive: [3] 99 % of control | [4] 106 % of control | [5] 106 % of control

CC(Nc1ccc([N+](=O)[O-])c2nonc12)C(=O)O (stereo not drawn)
inactive: dose: 6.25 mg/kg/injection, schedule: Q01DX009 (ip), vehicle: saline with Tween-80 108 % of control | dose: 12.5 mg/kg/injection, schedule: Q01DX009 (ip), vehicle: saline with Tween-80 100 % of control | dose: 25.0 mg/kg/injection, schedule: Q01DX009 (ip), vehicle: saline with Tween-80 111 % of control | [6] 86 % of control

CC(=O)Nc1cccc2c1C(=O)c1nccnc1C2=O
inactive: dose: 12.5 mg/kg/injection, schedule: Q04DX002 (ip), vehicle: Klucel + Tween-80 99 % of control | dose: 25.0 mg/kg/injection, schedule: Q04DX002 (ip), vehicle: Klucel + Tween-80 98 % of control | dose: 50.0 mg/kg/injection, schedule: Q04DX002 (ip), vehicle: Klucel + Tween-80 91 % of control

Nc1[nH]c(=O)[nH]c(=O)c1N
inactive: dose: 50.0 mg/kg/injection, schedule: Q01DX009 (ip), vehicle: saline with Tween-80 100 % of control | dose: 100.0 mg/kg/injection, schedule: Q01DX009 (ip), vehicle: saline with Tween-80 100 % of control | [6] 100 % of control

Cn1c(=O)c2nc(-c3ccc(Cl)cc3)oc2n(C)c1=O
inactive: [3] 104 % of control | [4] 100 % of control | [5] 102 % of control

NC(=O)/C(N=Nc1ccccc1)=N\Nc1ccccc1
inactive: dose: 6.25 mg/kg/injection, schedule: Q01DX005 (ip), vehicle: Klucel (hydroxypropylcellulose) (HPC) 91 % of control | dose: 12.5 mg/kg/injection, schedule: Q01DX005 (ip), vehicle: Klucel (hydroxypropylcellulose) (HPC) 91 % of control | dose: 25.0 mg/kg/injection, schedule: Q01DX005 (ip), vehicle: Klucel (hydroxypropylcellulose) (HPC) 87 % of control

CC1(C)OC(=O)ON(C(c2ccccc2)c2ccccc2)C1=O
inactive: dose: 60.0 mg/kg/injection, schedule: Q01DX005 (ip), vehicle: saline with Tween-80 101 % of control | dose: 120.0 mg/kg/injection, schedule: Q01DX005 (ip), vehicle: saline with Tween-80 108 % of control

C=C1CCC2C(c3c(C)c(O)c4c(c31)C(=O)C(C)C4)C2(C)C (stereo not drawn)
inactive: dose: 3.0 mg/kg/injection, schedule: Q01DX009 (ip), vehicle: Klucel (hydroxypropylcellulose) (HPC) 110 % of control | dose: 6.0 mg/kg/injection, schedule: Q01DX009 (ip), vehicle: Klucel (hydroxypropylcellulose) (HPC) 108 % of control | dose: 12.0 mg/kg/injection, schedule: Q01DX009 (ip), vehicle: Klucel (hydroxypropylcellulose) (HPC) 103 % of control | dose: 24.0 mg/kg/injection, schedule: Q01DX009 (ip), vehicle: Klucel (hydroxypropylcellulose) (HPC) 108 % of control
